Results: patent US8785488B2 (Exelixis Patent Company LLC, priority 2009, dated 2014)

Target: T1, human TGR5 (h-TGR5) (Homo sapiens, UniProt Q8TDU6)
T1 construct: expressed in transfected cells
T1 sequence (Q8TDU6 1-330): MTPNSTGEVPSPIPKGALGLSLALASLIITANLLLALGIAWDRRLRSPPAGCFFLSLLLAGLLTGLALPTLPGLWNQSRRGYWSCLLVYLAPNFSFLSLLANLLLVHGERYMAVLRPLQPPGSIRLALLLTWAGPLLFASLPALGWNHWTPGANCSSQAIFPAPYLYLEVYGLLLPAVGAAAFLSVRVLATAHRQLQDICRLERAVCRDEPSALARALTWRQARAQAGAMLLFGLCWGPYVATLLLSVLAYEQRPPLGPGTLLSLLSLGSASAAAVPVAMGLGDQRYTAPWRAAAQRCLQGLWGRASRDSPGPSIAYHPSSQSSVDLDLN
Assay: TGR5/CRE-Luciferiase Assay (HEK 293 hTGR5/CRE-Luc cells)
Type: cell-based
Settings: h-TGR5 CRE-Luc EC50, Table 1; read-out: CRE-Luc (EC50)
Procedure: Compounds were serially diluted in DMEM containing 5% DMSO and 5 μL of compound or media alone was transferred to each well and plates were incubated for 6 hours. Following incubation, 30 μL of lysis/luciferase buffer was added to each well. The luciferase activity was then measured on the EnVision™ plate reader and the dose response data was analyzed using ActivityBase.
In the following tables, EC50 values determined according to the TGR5 cAMP Assay described herein (cAMP); EC50 values determined according to the TGR5/CRE-Luciferiase Assay described herein (CRE-Luc). […] The following compounds in Tables 1 and 2 were made by using procedures described in the above Schemes and Examples, and, where applicable, by making any necessary substitutions of known materials that one skilled in the art would ordinarily understand how to do.

SMILES | EC50
CC(C)(C(=O)O)c1ccc(CSc2ncc(C(C)(C)c3ccc(Cl)c(Cl)c3)n2-c2ccc(F)cc2)c(F)c1 [2-{4-[({5-[1-(3,4-dichlorophenyl)-1-methylethyl]-1-(4-fluorophenyl)-1H-imidazol-2-yl}thio)methyl]-3-fluorophenyl}-2-methylpropanoic acid] | 100 to 1000 nM
CC(C)(O)c1ccc(CSc2ncc(C(C)(C)c3ccc(Cl)c(Cl)c3)n2-c2ccc(F)cc2)c(F)c1 [2-{4-[({5-[1-(3,4-dichlorophenyl)-1-methylethyl]-1-(4-fluorophenyl)-1H-imidazol-2-yl}thio)methyl]-3-fluorophenyl}propan-2-ol] | 100 to 1000 nM
CC(C)(C(=O)O)c1cc(CSc2ncc(C(C)(C)c3ccc(Cl)c(Cl)c3)n2-c2ccc(F)cc2)ccc1F [2-{5-[({5-[1-(3,4-dichlorophenyl)-1-methylethyl]-1-(4-fluorophenyl)-1H-imidazol-2-yl}thio)methyl]-2-fluorophenyl}-2-methylpropanoic acid] | 1000 to 10000 nM
CC(C)(O)c1cc(CSc2ncc(C(C)(C)c3ccc(Cl)c(Cl)c3)n2-c2ccc(F)cc2)ccc1F [2-{5-[({5-[1-(3,4-dichlorophenyl)-1-methylethyl]-1-(4-fluorophenyl)-1H-imidazol-2-yl}thio)methyl]-2-fluorophenyl}propan-2-ol] | 100 to 1000 nM
CC(C)(c1ccc(Cl)c(Cl)c1)c1cnc(S(=O)(=O)C(C)(C)c2c(F)cccc2Cl)n1-c1ccc(F)cc1 [2-{[1-(2-chloro-6-fluorophenyl)-1-methylethyl]sulfonyl}-5-[1-(3,4-dichlorophenyl)-1-methylethyl]-1-(4-fluorophenyl)-1H-imidazole] | 100 to 1000 nM
CC(C)(Oc1cc(-n2c(C(C)(C)c3ccc(Cl)c(Cl)c3)cnc2SCc2ccc(F)cc2Cl)ccc1F)C(=O)O [2-{[5-(2-{[(2-chloro-4-fluorophenyl)methyl]thio}-5-[1-(3,4-dichlorophenyl)-1-methylethyl]-1H-imidazol-1-yl)-2-fluorophenyl]oxy}-2-methylpropanoic acid] | 1000 to 10000 nM
CC(C)(c1ccc(Cl)c(Cl)c1)c1cnc(S(=O)(=O)Cc2ccc(F)cc2Cl)n1-c1ccc(F)cc1 [2-{[(2-chloro-4-fluorophenyl)methyl]sulfonyl}-5-[1-(3,4-dichlorophenyl)-1-methylethyl]-1-(4-fluorophenyl)-1H-imidazole] | 1000 to 10000 nM
CC(C)(c1ccc(F)c(F)c1)c1cnc(S(=O)(=O)Cc2ccc(F)cc2Cl)n1-c1ccc(F)cc1 [2-{[(2-chloro-4-fluorophenyl)methyl]sulfonyl}-5-[1-(3,4-difluorophenyl)-1-methylethyl]-1-(4-fluorophenyl)-1H-imidazole] | 1000 to 10000 nM
CC(C)(c1ccc(OC(F)(F)F)c(Cl)c1)c1cnc(SCc2ccc(F)cc2Cl)n1-c1ccc(F)cc1 [2-{[(2-chloro-4-fluorophenyl)methyl]thio}-5-(1-{3-chloro-4-[(trifluoromethyl)oxy]phenyl}-1-methylethyl)-1-(4-fluorophenyl)-1H-imidazole] | 1000 to 10000 nM
CC(C)(c1ccc2c(c1)OCCO2)c1cnc(SCc2ccc(F)cc2Cl)n1-c1ccc(F)cc1 [2-{[(2-chloro-4-fluorophenyl)methyl]thio}-5-[1-(2,3-dihydro-1,4-benzodioxin-6-yl)-1-methylethyl]-1-(4-fluorophenyl)-1H-imidazole] | < 100 nM
CC(C)(c1ccc(Cl)c(Cl)c1)c1cnc(SCc2ccc(F)cc2Cl)n1-c1ccc(F)c(F)c1 [2-{[(2-chloro-4-fluorophenyl)methyl]thio}-5-[1-(3,4-dichlorophenyl)-1-methylethyl]-1-(3,4-difluorophenyl)-1H-imidazole] | 100 to 1000 nM
CC(C)(c1ccc(Cl)c(Cl)c1)c1cnc(SCc2ccc(F)cc2Cl)n1-c1cc(F)cc(F)c1 [2-{[(2-chloro-4-fluorophenyl)methyl]thio}-5-[1-(3,4-dichlorophenyl)-1-methylethyl]-1-(3,5-difluorophenyl)-1H-imidazole] | 100 to 1000 nM
CC(C)(c1ccc(Cl)c(Cl)c1)c1cnc(SCc2ccc(F)cc2Cl)n1-c1ccc(F)cc1 [2-{[(2-chloro-4-fluorophenyl)methyl]thio}-5-[1-(3,4-dichlorophenyl)-1-methylethyl]-1-(4-fluorophenyl)-1H-imidazole] | 100 to 1000 nM
COc1cc(F)ccc1-n1c(C(C)(C)c2ccc(Cl)c(Cl)c2)cnc1SCc1ccc(F)cc1Cl [2-{[(2-chloro-4-fluorophenyl)methyl]thio}-5-[1-(3,4-dichlorophenyl)-1-methylethyl]-1-[4-fluoro-2-(methyloxy)phenyl]-1H-imidazole] | 100 to 1000 nM
CC(C)(c1ccc(Cl)c(Cl)c1)c1cnc(SCc2ccc(F)cc2Cl)n1-c1ccc(F)c(C(F)(F)F)c1 [2-{[(2-chloro-4-fluorophenyl)methyl]thio}-5-[1-(3,4-dichlorophenyl)-1-methylethyl]-1-[4-fluoro-3-(trifluoromethyl)phenyl]-1H-imidazole] | 1000 to 10000 nM
CC(C)(c1ccc(F)c(F)c1)c1cnc(SCc2ccc(F)cc2Cl)n1-c1ccc(F)cc1 [2-{[(2-chloro-4-fluorophenyl)methyl]thio}-5-[1-(3,4-difluorophenyl)-1-methylethyl]-1-(4-fluorophenyl)-1H-imidazole] | 100 to 1000 nM
Fc1ccc(-n2c(Cc3ccc(F)c(F)c3)cnc2SCc2ccc(F)cc2Cl)cc1 [2-{[(2-chloro-4-fluorophenyl)methyl]thio}-5-[(3,4-difluorophenyl)methyl]-1-(4-fluorophenyl)-1H-imidazole] | 100 to 1000 nM
COc1ccc(C(C)(C)c2cnc(SCc3ccc(F)cc3Cl)n2-c2ccc(F)cc2)cc1Cl [2-{[(2-chloro-4-fluorophenyl)methyl]thio}-5-{1-[3-chloro-4-(methyloxy)phenyl]-1-methylethyl}-1-(4-fluorophenyl)-1H-imidazole] | < 100 nM
CC(C)(c1ccc(Cl)c(Cl)c1)c1cnc(COc2ccc(F)cc2Cl)n1-c1ccc(F)cc1 [2-{[(2-chloro-4-fluorophenyl)oxy]methyl}-5-[1-(3,4-dichlorophenyl)-1-methylethyl]-1-(4-fluorophenyl)-1H-imidazole] | 1000 to 10000 nM
CC(C)(c1ccc(Cl)c(Cl)c1)c1cnc(CS(=O)(=O)c2ccc(F)cc2Cl)n1-c1ccc(F)cc1 [2-{[(2-chloro-4-fluorophenyl)sulfonyl]methyl}-5-[1-(3,4-dichlorophenyl)-1-methylethyl]-1-(4-fluorophenyl)-1H-imidazole] | 1000 to 10000 nM
CC(C)(c1ccc(Cl)c(Cl)c1)c1cnc(S(=O)(=O)Cc2c(F)cccc2Cl)n1-c1ccc(Cl)c(Cl)c1 [2-{[(2-chloro-6-fluorophenyl)methyl]sulfonyl}-1-(3,4-dichlorophenyl)-5-[1-(3,4-dichlorophenyl)-1-methylethyl]-1H-imidazole] | 1000 to 10000 nM
CC(C)(c1ccc(Cl)c(Cl)c1)c1cnc(S(=O)(=O)Cc2c(F)cccc2Cl)n1-c1ccc(F)cc1F [2-{[(2-chloro-6-fluorophenyl)methyl]sulfonyl}-5-[1-(3,4-dichlorophenyl)-1-methylethyl]-1-(2,4-difluorophenyl)-1H-imidazole] | 100 to 1000 nM
CC(C)(c1ccc(Cl)c(Cl)c1)c1cnc(S(=O)(=O)Cc2c(F)cccc2Cl)n1-c1ccc(F)cc1 [2-{[(2-chloro-6-fluorophenyl)methyl]sulfonyl}-5-[1-(3,4-dichlorophenyl)-1-methylethyl]-1-(4-fluorophenyl)-1H-imidazole] | 100 to 1000 nM
CC(C)(c1ccc(Cl)c(Cl)c1)c1cnc(SCc2c(F)cccc2Cl)n1-c1ccc(Cl)c(Cl)c1 [2-{[(2-chloro-6-fluorophenyl)methyl]thio)-1-(3,4-dichlorophenyl)-5-[1-(3,4-dichlorophenyl)-1-methylethyl]-1H-imidazole] | 100 to 1000 nM
CC(C)(c1ccc(Cl)c(Cl)c1)c1cnc(SCc2c(F)cccc2Cl)n1-c1ccc(Cl)cc1Cl [2-{[(2-chloro-6-fluorophenyl)methyl]thio}-1-(2,4-dichlorophenyl)-5-[1-(3,4-dichlorophenyl)-1-methylethyl]-1H-imidazole] | 1000 to 10000 nM
CC(C)(c1ccc(F)cc1)c1cnc(SCc2c(F)cccc2Cl)n1-c1ccc(F)cc1 [2-{[(2-chloro-6-fluorophenyl)methyl]thio}-1-(4-fluorophenyl)-5-[1-(4-fluorophenyl)-1-methylethyl]-1H-imidazole] | 100 to 1000 nM
CC(C)(c1ccc(S(C)(=O)=O)cc1)c1cnc(SCc2c(F)cccc2Cl)n1-c1ccc(F)cc1 [2-{[(2-chloro-6-fluorophenyl)methyl]thio}-1-(4-fluorophenyl)-5-{1-methyl-1-[4-(methylsulfonyl)phenyl]ethyl}-1H-imidazole] | 100 to 1000 nM
CC(C)(c1ccc(C(F)(F)F)cc1)c1cnc(SCc2c(F)cccc2Cl)n1-c1ccc(F)cc1 [2-{[(2-chloro-6-fluorophenyl)methyl]thio}-1-(4-fluorophenyl)-5-{1-methyl-1-[4-(trifluoromethyl)phenyl]ethyl}-1H-imidazole] | 100 to 1000 nM
CC(C)(c1ccc(Cl)c(Cl)c1)c1cnc(SCc2c(F)cccc2Cl)n1C1CCCC1 [2-{[(2-chloro-6-fluorophenyl)methyl]thio}-1-cyclopentyl-5-[1-(3,4-dichlorophenyl)-1-methylethyl]-1H-imidazole] | 1000 to 10000 nM
